Measured values: patent publication US6706663B2, “Herbicidal 3-heterocyclic substituted benzisothiazole and benzisoxazole compounds” (Wyeth, priority 2000, dated 2004)

Legend:
ORYSAT (Rice, Tebonnet) = experiment: Preemergence herbicidal evaluation; format: in vivo, Oryza sativa, (L.) Tebonnet; conditions: preemergence, rated 4-5 weeks after treatment
ZEAMX (Corn, Field) [1] = experiment: Preemergence herbicidal evaluation; format: in vivo, Zea mays, L.; conditions: preemergence, rated 4-5 weeks after treatment
CYPIR (Cyperus iria) = experiment: Flooded paddy, preemergence weed control; format: in vivo; conditions: rated 3-4 weeks after treatment, 0-9 rating scale
Outline: (§1)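 Preemergence, flooded: propagules planted at 0.5 cm depth in silt loam, water level maintained at 1.5 to 3 cm over soil, containers kept on greenhouse benches. Activity scored 0-9 by eye relative to a control plant.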

GALAP (Galium aparine) [2] = experiment: Postemergence herbicidal evaluation; format: in vivo
Outline: (§2)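 Visual 0–9 injury scores versus control plants, covering stand, vigour, malformation, size, chlorosis and general appearance, taken four to five weeks post-spray and averaged over replicate tests. Plants were sprayed at roughly two weeks old and held on greenhouse benches.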

[3] = system: ECHCG (Echinochloa crus-galli); experiment: Postemergence herbicidal evaluation; format: in vivo, (L.) Beau
Outline: as §2

[4] = system: TRZAWR (Wheat, Winter, cv Riband); experiment: Preemergence herbicidal evaluation; format: in vivo, Triticum aestivum; conditions: preemergence, rated 4-5 weeks after treatment
Outline: (§3)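 Visual 0-9 rating versus untreated control, taken four to five weeks post-treatment, scoring stand, vigor, malformation, size, chlorosis and overall appearance. Compound applied as aqueous acetone spray to freshly seeded soil cups, then kept under standard greenhouse care.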

[5] = system: CHEAL (Chenopodium album); experiment: Postemergence herbicidal evaluation; format: in vivo, L.
Outline: as §2

[6] = system: CASOB (Cassia obtusifolia); experiment: Postemergence herbicidal evaluation; format: in vivo, L.
Outline: as §2

[7] = system: AMBEL (Ambrosia artemisifolia); experiment: Postemergence herbicidal evaluation; format: in vivo, L.
Outline: as §2

[8] = system: CHEAL (Chenopodium album); experiment: Preemergence herbicidal evaluation; format: in vivo, L.; conditions: preemergence, rated 4-5 weeks after treatment
Outline: as §3

[9] = system: CASOB (Cassia obtusifolia); experiment: Preemergence herbicidal evaluation; format: in vivo, L.; conditions: preemergence, rated 4-5 weeks after treatment
Outline: as §3

[10] = system: AMBEL (Ambrosia artemisifolia); experiment: Preemergence herbicidal evaluation; format: in vivo, L.; conditions: preemergence, rated 4-5 weeks after treatment
Outline: as §3

GALAP (Galium aparine) [11] = experiment: Preemergence herbicidal evaluation; format: in vivo; conditions: preemergence, rated 4-5 weeks after treatment
Outline: as §3

[12] = system: ABUTH (Abutilon theophrasti); experiment: Postemergence herbicidal evaluation; format: in vivo, Medic.
Outline: as §2

[13] = system: IPOHE (Ipomoea hederacea); experiment: Postemergence herbicidal evaluation; format: in vivo, (L.) Jacq.
Outline: as §2

[14] = system: CYPSE (Cyperus serotinus); experiment: Flooded paddy, preemergence weed control; format: in vivo, Rottb.; conditions: rated 3-4 weeks after treatment, 0-9 rating scale
Outline: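 Herbicidal effect was scored visually on a 0–9 scale against an untreated control 3–4 weeks after treatment. Compounds were applied preemergence as 50/50 v/v aqueous/acetone mixtures into flood water (1.5–3 cm deep over silt loam), at roughly 0.0080 to 0.1250 kg/ha active ingredient.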

[15] = system: SAGPY (Sagittaria pygmaea); experiment: Flooded paddy, preemergence weed control; format: in vivo, L.; conditions: rated 3-4 weeks after treatment, 0-9 rating scale
Outline: as §1

[16] = system: GLXMAW (Soybean, Williams); experiment: Preemergence herbicidal evaluation; format: in vivo, Glycine max, (L.) Merr. cv Williams; conditions: preemergence, rated 4-5 weeks after treatment
[17] = system: ECHORC (Echinochloa oryzoides); experiment: Flooded paddy, preemergence weed control; format: in vivo, Echinochloa oryzoides (Ard.) Fritsch.; conditions: rated 3-4 weeks after treatment, 0-9 rating scale
Outline: as §1

[18] = system: IPOHE (Ipomoea hederacea); experiment: Preemergence herbicidal evaluation; format: in vivo, (L.) Jacq.; conditions: preemergence, rated 4-5 weeks after treatment
ZEAMX (Corn, Field) [19] = experiment: Postemergence herbicidal evaluation; format: in vivo, Zea mays, L.
Outline: as §2

[20] = system: GLXMAW (Soybean, Williams); experiment: Postemergence herbicidal evaluation; format: in vivo, Glycine max, (L.) Merr. cv Williams
Outline: as §2

Compound: Cn1c(C(F)(F)F)cc(=O)n(-c2ccc3snc(C4SCCN4C(=O)c4ccccc4)c3c2)c1=O (centres unmarked) [Compound 30, 3-benzoyl-2-[5-[3,6-dihydro-3-methyl-2,6-dioxo-4-(trifluoromethyl)-1(2H)-pyrimidinyl]-1,2-benzisothiazol-3-yl]thiazolidine]
- ORYSAT preemergence herbicidal rating (ORYSAT (Rice, Tebonnet); Rate 0.0620 kg/ha): 0.0
- ORYSAT preemergence herbicidal rating (ORYSAT (Rice, Tebonnet); Rate 0.1250 kg/ha): 0.0
- ORYSAT preemergence herbicidal rating (ORYSAT (Rice, Tebonnet); Rate 0.2500 kg/ha): 1.0
- ZEAMX preemergence herbicidal rating (ZEAMX (Corn, Field) [1]; Rate 0.0620 kg/ha): 0.5
- ZEAMX preemergence herbicidal rating (ZEAMX (Corn, Field) [1]; Rate 0.1250 kg/ha): 3.5
- ZEAMX preemergence herbicidal rating (ZEAMX (Corn, Field) [1]; Rate 0.2500 kg/ha): 5.5
- herbicidal rating, CYPIR (CYPIR (Cyperus iria); rate 0.0080 kg/ha): 0.0
- herbicidal rating, CYPIR (CYPIR (Cyperus iria); rate 0.0320 kg/ha): 7.0
- herbicidal rating, CYPIR (CYPIR (Cyperus iria); rate 0.1250 kg/ha): 9.0
- Postemergence herbicidal rating, GALAP (GALAP (Galium aparine) [2]; rate 0.0320 kg/ha): 1.0
- Postemergence herbicidal rating, GALAP (GALAP (Galium aparine) [2]; rate 0.0620 kg/ha): 3.0
- Postemergence herbicidal rating, ECHCG ([3]; rate 0.0320 kg/ha): 0.0
- Postemergence herbicidal rating, ECHCG ([3]; rate 0.0620 kg/ha): 2.0
- TRZAWR preemergence herbicidal rating ([4]; Rate 0.0620 kg/ha): 0.0
- TRZAWR preemergence herbicidal rating ([4]; Rate 0.1250 kg/ha): 2.0
- TRZAWR preemergence herbicidal rating ([4]; Rate 0.2500 kg/ha): 6.0
- Postemergence herbicidal rating, CHEAL ([5]; rate 0.0320 kg/ha): 4.0
- Postemergence herbicidal rating, CHEAL ([5]; rate 0.0620 kg/ha): 9.0
- Postemergence herbicidal rating, CASOB ([6]; rate 0.0320 kg/ha): 0.0
- Postemergence herbicidal rating, CASOB ([6]; rate 0.0620 kg/ha): 2.0
- Postemergence herbicidal rating, AMBEL ([7]; rate 0.0320 kg/ha): 4.0
- Postemergence herbicidal rating, AMBEL ([7]; rate 0.0620 kg/ha): 9.0
- CHEAL preemergence herbicidal rating ([8]; Rate 0.0620 kg/ha): 9.0
- CHEAL preemergence herbicidal rating ([8]; Rate 0.1250 kg/ha): 9.0
- CHEAL preemergence herbicidal rating ([8]; Rate 0.2500 kg/ha): 9.0
- CASOB preemergence herbicidal rating ([9]; Rate 0.0620 kg/ha): 0.0
- CASOB preemergence herbicidal rating ([9]; Rate 0.1250 kg/ha): 1.5
- CASOB preemergence herbicidal rating ([9]; Rate 0.2500 kg/ha): 3.0
- AMBEL preemergence herbicidal rating ([10]; Rate 0.0620 kg/ha): 4.5
- AMBEL preemergence herbicidal rating ([10]; Rate 0.1250 kg/ha): 7.5
- AMBEL preemergence herbicidal rating ([10]; Rate 0.2500 kg/ha): 9.0
- GALAP preemergence herbicidal rating (GALAP (Galium aparine) [11]; Rate 0.0620 kg/ha): 0.0
- GALAP preemergence herbicidal rating (GALAP (Galium aparine) [11]; Rate 0.1250 kg/ha): 7.0
- GALAP preemergence herbicidal rating (GALAP (Galium aparine) [11]; Rate 0.2500 kg/ha): 9.0
- Postemergence herbicidal rating, ABUTH ([12]; rate 0.0320 kg/ha): 9.0
- Postemergence herbicidal rating, ABUTH ([12]; rate 0.0620 kg/ha): 9.0
- Postemergence herbicidal rating, IPOHE ([13]; rate 0.0320 kg/ha): 7.0
- Postemergence herbicidal rating, IPOHE ([13]; rate 0.0620 kg/ha): 9.0
- herbicidal rating, CYPSE ([14]; rate 0.0320 kg/ha): 0.0
- herbicidal rating, CYPSE ([14]; rate 0.1250 kg/ha): 3.0
- herbicidal rating, SAGPY ([15]; rate 0.0080 kg/ha): 0.0
- herbicidal rating, SAGPY ([15]; rate 0.0320 kg/ha): 1.0
- herbicidal rating, SAGPY ([15]; rate 0.1250 kg/ha): 6.0
- GLXMAW preemergence herbicidal rating ([16]; Rate 0.0620 kg/ha): 1.0
- GLXMAW preemergence herbicidal rating ([16]; Rate 0.1250 kg/ha): 0.0
- GLXMAW preemergence herbicidal rating ([16]; Rate 0.2500 kg/ha): 5.0
- herbicidal rating, ECHORC ([17]; rate 0.0080 kg/ha): 3.0
- herbicidal rating, ECHORC ([17]; rate 0.0320 kg/ha): 4.0
- herbicidal rating, ECHORC ([17]; rate 0.1250 kg/ha): 9.0
- IPOHE preemergence herbicidal rating ([18]; Rate 0.0620 kg/ha): 1.5
- IPOHE preemergence herbicidal rating ([18]; Rate 0.1250 kg/ha): 1.5
- IPOHE preemergence herbicidal rating ([18]; Rate 0.2500 kg/ha): 6.5
- Postemergence herbicidal rating, ZEAMX (ZEAMX (Corn, Field) [19]; rate 0.0320 kg/ha): 4.5
- Postemergence herbicidal rating, ZEAMX (ZEAMX (Corn, Field) [19]; rate 0.0620 kg/ha): 6.0
- Postemergence herbicidal rating, GLXMAW ([20]; rate 0.0320 kg/ha): 6.0
- Postemergence herbicidal rating, GLXMAW ([20]; rate 0.0620 kg/ha): 6.5
